Data as given in patent publication US5362728A, “4,5-bridged-2,3,4,5-tetrahydro-1H-3-benzazepine-7-ols and derivatives and compositions and methods employing such compounds” (Schering Corporation, priority 1992, dated 1994).
Read-outs that look alike come from different tables or passages of the source.

Assays:
[1] = target: T1, dopamine D-1 receptor (Rattus norvegicus, UniProt P18901); test: Competitive inhibition assay, 3H-SCH 23390 binding (D-1), rat striatal tissue; parameters: species or system rat (male Sprague-Dawley)
T1 construct: Striatal tissue is excised, pooled, and homogenized; from tissue; host or cells: rat striatum, washed membrane homogenate
T1 sequence (P18901 whole entry): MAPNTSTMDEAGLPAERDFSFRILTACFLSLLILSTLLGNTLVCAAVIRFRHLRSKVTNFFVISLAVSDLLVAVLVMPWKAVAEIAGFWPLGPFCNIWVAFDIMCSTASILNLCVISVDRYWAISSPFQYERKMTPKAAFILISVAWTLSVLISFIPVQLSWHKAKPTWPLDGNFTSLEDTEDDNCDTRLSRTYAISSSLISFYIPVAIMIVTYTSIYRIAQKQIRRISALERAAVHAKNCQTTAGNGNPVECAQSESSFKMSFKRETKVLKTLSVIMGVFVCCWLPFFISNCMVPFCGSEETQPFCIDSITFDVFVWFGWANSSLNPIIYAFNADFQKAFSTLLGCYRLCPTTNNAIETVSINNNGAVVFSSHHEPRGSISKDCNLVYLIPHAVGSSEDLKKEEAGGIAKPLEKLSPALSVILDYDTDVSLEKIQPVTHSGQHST
From the text: (§1) A methodology for characterization of D-1 and D-2 receptor binding and an interpretation of the data are described by Billard et al., Life Sciences 35, 1885 (1984) in which the binding of the benzazepine (R)-(+)-8-chloro-2,3,4,5-tetrahydro-3-methyl-5-phenyl-1H-3-benzazepin-7-olhemimaleate (SCH 23390) to the dopamine D-1 receptor is characterized. A selectivity for D-1 receptor binding as compared to D-2 receptor binding .is believed to confer the therapeutic advantage of avoiding troublesome and potentially irreversible neurological side effects associated with D-2 receptor occupancy.
(§2) Tritiated SCH 23390 and tritiated spiperone (a potent D-2 receptor ligand) are obtained as described in the Billard et al. reference supra and serially diluted in 0.05M Tris buffer, pH 7.4, as required. Compounds of this invention are synthesized as disclosed herein and diluted in 0.05M Tris buffer, pH 7.4, as required.
(§3) Male Sprague-Dawley rats (200 to 250 g) from Charles River Breeding Laboratories, Mass. are used to obtain brain tissue. The rats are humanely sacrificed and their brains removed and placed on ice. Striatal tissue is excised, pooled, and homogenized (Brinkman Polytron, 10 sec) in 100 volumes (w/v) of ice cold 50 mM Tds buffer, pH 7.4 (at 25° C.). The homogenate is centrifuged at 20,000 xg for 10 min. The resultant pellet is rehomogenized in Tris buffer and centrifuged again. The final pellet is resuspended in 50 mM Tris buffer pH 7.4 containing 120 mM NaCl, 5 mM KCl, 2 mM CaCl2, and 1 mM MgCl2.
(§4) Polypropylene incubation tubes receive 100 μl of the individual test compounds at vadous concentrations dissolved or suspended in 0.05M Tris, pH 7.4 containing 4 mg/ml methylcellulose, 100 μl of a solution of ^3 H-SCH 23390 in Tris buffer (final reaction mixture concentration=0.3 nM) or 100 μl of a solution of ^3 H-spiperone in Tris buffer (final concentration=0.2 nM) and 800 μl of tissue suspension (ca. 3 mg/assay). Tubes are incubated at 37° C. for 15 minutes and rapidly vacuum filtered through Whatman GF/B filters and rinsed 4 times with 4 ml of ice cold 50 mM Tds buffer, pH 7.4. The filters are transferred to scintillation vials, equilibated with 10 ml of scintillant (Scintosol, Isolab, Inc.) for 16 hours at 25° C. and the radioactivity determined in a liquid scintillation counter, Ki values are determined as described by Billard et al. using the relationship Kj = IC50 /(1+([L]/KD)) wherein IC50 =concentration of test drug necessary to displace 50% of specifically bound ^3 H-Sch 23390, [L]=concentration of radioligand used in the assay, and KD =dissociation constant.

[2] = target: T2, D-2 receptor (Rattus norvegicus, UniProt P61169); test: Competitive inhibition assay, 3H-spiperone binding (D-2), rat striatal tissue; parameters: species or system rat (male Sprague-Dawley)
T2 construct: Striatal tissue is excised, pooled, and homogenized; from tissue; host or cells: rat striatum, washed membrane homogenate
T2 sequence (P61169 whole entry): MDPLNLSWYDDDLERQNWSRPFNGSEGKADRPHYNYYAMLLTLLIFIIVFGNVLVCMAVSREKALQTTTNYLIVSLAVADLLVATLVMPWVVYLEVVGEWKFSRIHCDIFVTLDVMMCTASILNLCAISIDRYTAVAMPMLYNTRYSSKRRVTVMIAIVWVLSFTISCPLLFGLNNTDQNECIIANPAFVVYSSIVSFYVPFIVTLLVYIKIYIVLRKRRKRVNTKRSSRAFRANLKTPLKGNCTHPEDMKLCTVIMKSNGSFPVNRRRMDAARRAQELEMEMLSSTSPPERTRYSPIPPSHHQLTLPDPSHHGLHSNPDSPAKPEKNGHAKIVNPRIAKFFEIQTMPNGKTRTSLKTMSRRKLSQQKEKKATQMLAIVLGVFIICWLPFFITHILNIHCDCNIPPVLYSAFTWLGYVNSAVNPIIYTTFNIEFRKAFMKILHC
From the text: as §1, §2, §3, §4

[3] = test system: squirrel monkey; test: Squirrel monkey conditioned avoidance response (CAR) test; type: in vivo; settings: Primates, po, read-out: CAR(MED) Sq. Monkey @ 1 hr
From the text: SQUIRREL MONKEY CONDITIONED AVOIDANCE RESPONSE (CAR) TEST
This test is designed to measure the potency of candidate compounds in a primate species.
Male or female squirrel monkeys weighing 800-1200 g housed one per cage are utilized. Initially each monkey is taught to terminate a 3 mA electric shock delivered through the grid floor of the test cage and an overlapping tone by depressing a lever in the cage.
In the second phase of the testing, a ten second tone is turned on prior to the shock component. A lever press during the sounding of the tone terminates the tone and prevents the occurrence of the shock component and is denoted as an "avoidance".
The compound testing is commenced after three consecutive days of re-testing. […] The monkey must achieve at least an 85% correct avoidance before drug testing commences. If this minimal avoidance level is achieved, the next day the monkey is orally dosed or injected with the subject compounds in the appropriate vehicle and the number of avoidances are recorded. An animal is defined as having been "affected" by any drug treatment if there is a 50% loss of avoidance behavior relative to the performance of the animal when only the vehicle is injected. The minimal effective dose (MED) is defined as that dose producing an effect in at least 50% of the animals.
A test may be conducted to determine the effective potency of a compound in accordance with the present invention by comparing a compound of the invention to a known compound, (R)-(+)-8-chloro-2,3,4,5-tetrahydro-3-methyl-5-phenyl-1H-3-benzazepin-7-olhemimaleate, denoted as Compound B (Sch 23390). A compound of the invention administered 60 minutes prior to the test is compared to compound B administered 30 minutes prior to test.

[4] = Col. 7, 3H-SCH 23390 0.3 nM, rat striatum, 37° C., 15 min, pH 7.4, read-out: Ki (nM) 3H-Sch23390
[5] = Col. 8, 3H-spiperone 0.2 nM, rat striatum, 37° C., 15 min, pH 7.4, read-out: Ki (nM) 3H-Spip
[6] = Col. 9, p.o., 1 hr, minimal effective dose = dose producing an effect in at least 50% of the animals

Structure (SMILES): CN1CCc2ccc(O)cc2[C@@H]2CCC[C@H]21 (relative stereo)
- Ki [1, 4]: 335 nM
- Ki [2, 5]: 2320 nM

Structure (SMILES): C[C@H]1CC[C@@H]2[C@@H]1c1cc(O)c(Cl)cc1CCN2C (relative stereo)
- Ki [1, 4]: 3 nM
- Ki [2, 5]: 350 nM
- minimal effective dose [3, 6]: > 10 mg/kg

Structure (SMILES): CN1CCc2cc(Cl)c(O)cc2[C@@H]2CCC[C@H]21 (relative stereo)
- Ki [1, 4]: 2.8 nM
- Ki [2, 5]: 380 nM
- minimal effective dose [3, 6]: > 10 mg/kg

Structure (SMILES): Cc1cc2c(cc1O)[C@@H]1CCCC[C@H]1N(C)CC2 (relative stereo)
- Ki [1, 4]: 70 nM
- Ki [2, 5]: 71000 nM
- minimal effective dose [3, 6]: > 10 mg/kg

Structure (SMILES): CCCCC(=O)Oc1cc2c(cc1Cl)CCN(C)C1CCCC21 (centres unmarked)
- Ki [1, 4]: 24 nM
- Ki [2, 5]: 177 nM

Structure (SMILES): Cc1cc2c(cc1O)[C@H]1[C@@H](CC[C@@H]1C)N(C)CC2 (relative stereo)
- Ki [1, 4]: 14 nM
- Ki [2, 5]: 840 nM
- minimal effective dose [3, 6]: 3 mg/kg

Structure (SMILES): Oc1cc2c(cc1Cl)CCN[C@@H]1CCC[C@@H]21 (relative stereo)
- Ki [1, 4]: 96 nM
- Ki [2, 5]: 1300 nM

Structure (SMILES): CC(C)c1ccc(NC(=O)Oc2cc3c(cc2Cl)CCN(C)[C@@H]2CCC[C@@H]32)cc1 (relative stereo)
- Ki [1]: 5.4 nM
- Ki [2]: 430 nM

Structure (SMILES): C[C@H]1CC[C@@H]2[C@@H](C1)c1cc(O)c(Cl)cc1CCN2C (relative stereo)
- Ki [1, 4]: 70 nM
- Ki [2, 5]: > 10000 nM
- minimal effective dose [3, 6]: > 10 mg/kg

Structure (SMILES): Cc1ccc(NC(=O)Oc2cc3c(cc2Cl)CCN(C)[C@@H]2CCC[C@@H]32)c(C)c1 (relative stereo)
- Ki [1]: 7.7 nM
- Ki [2]: 428 nM
- minimal effective dose ([3]; 1 h): > 3 mg/kg
